Read-outs that look alike come from different tables or passages of the source.
Experiments:
[1] = system: AtCESA6 (cesa6 alleles es20r1-es20r15); experiment: Root growth of EMS-induced cesa6 mutants es20r1-es20r15 on ES20 analogs; type: in vivo, Arabidopsis thaliana; details: compared with wild-type/control plants
Source text: A subset of active ES20 analogs likely target the catalytic domain of AtCESA6. […] Since ES20 and the nine active ES20 analogs share highly similar structures, we reasoned whether these active analogs target AtCESA6 as well. We therefore examined the growth of es20r1-es20r15 plants in the presence of nine active ES20 analogs compared to wild-type plants.
(§1) To test the inhibitory effects of different chemicals on plant growth, wild-type Arabidopsis Col-0 plants were used. The seeds of plants used for growth assays or live cell imaging were sequentially sterilized with 50% bleach and 75% ethanol. […] To quantify the inhibitory effects of different ES20 active analogs on the root growth of Arabidopsis wildtype, EMS mutants, and transgenic plants expressing mutated AtCESA6 in prc1-1 background, sterilized Col-0, mutants, and transgenic plants seeds were sown on gridded Petri plates containing ½-strength MS medium supplemented with different concentrations of ES20 analogs. […] The plates were scanned using an Epson Perfection V550 scanner after 7 days of growth, and the root lengths of plants were quantified using ImageJ software. […] The Petri dishes were scanned, and hypocotyl length was measured using ImageJ. Transgenic plants expressing fluorescence-tagged PIN2, PIP2a, HDEL, VHA-a1, and GOT1p were as reported previously (Xu and Scheres, Plant Cell, 2005, 17, 525-536).

[2] = system: AtCESA6 carrying missense mutations in prc1-1; experiment: Root growth of transgenic plants expressing mutated AtCESA6 in prc1-1; type: in vivo, Arabidopsis thaliana; details: D562N, D564N, D785N, Q823E, R826A, W827A in prc1-1
Source text: We then examined whether transgenic plants expressing AtCESA6 with predicted missense mutations at the catalytic site in prc1-1 background would have altered sensitivity to active ES20 analogs. […] However, the responses of two transgenic lines expressing AtCESA6 carrying missense mutations outside of the catalytic site (L365F and D395N) to nine active ES20 analogs were similar to those of wild-type plants (FIG. 2B).
as §1, with “Transgenic plants expressing fluorescence-tagged PIN2, PIP2a, HDEL, VHA-a1, and GOT1p were as reported previously (Xu and Scheres, Plant Cell, 2005, 17, 525-536).” left out

[3] = target: T1, GFP-CESA6c: GFP-tagged central cytosolic domain of AtCESA6 (cellulose synthase, CESA6) with a His-SUMO tag (Arabidopsis thaliana, UniProt Q94JQ6); experiment: Microscale thermophoresis (MST) binding to purified GFP-tagged CESA6c (wild-type); details: read-out: Kd, thermophoresis binding curve, GFP-CESA6c
T1 construct: His-SUMO; made in house; host or cells: E. coli
T1 sequence (Q94JQ6 322-868 limits assumed): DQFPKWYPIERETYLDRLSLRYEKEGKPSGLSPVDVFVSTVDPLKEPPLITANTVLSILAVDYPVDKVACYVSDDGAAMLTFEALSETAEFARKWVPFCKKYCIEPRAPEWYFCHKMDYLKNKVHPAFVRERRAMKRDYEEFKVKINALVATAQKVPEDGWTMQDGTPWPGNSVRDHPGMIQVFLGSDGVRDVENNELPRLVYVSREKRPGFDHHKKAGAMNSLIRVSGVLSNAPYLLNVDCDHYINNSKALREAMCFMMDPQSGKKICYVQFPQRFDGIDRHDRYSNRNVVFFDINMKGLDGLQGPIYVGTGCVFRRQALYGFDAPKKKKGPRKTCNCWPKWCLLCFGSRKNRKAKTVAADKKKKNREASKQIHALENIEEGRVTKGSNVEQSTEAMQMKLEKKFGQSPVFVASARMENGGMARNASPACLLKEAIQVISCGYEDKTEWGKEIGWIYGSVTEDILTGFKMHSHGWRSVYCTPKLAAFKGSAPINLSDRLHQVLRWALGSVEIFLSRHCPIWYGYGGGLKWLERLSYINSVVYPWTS
Source text: FIGS. 3A-3Q. […] FIG. 3A to FIG. 3G. […] FIG. 3A. Representative 5-day-old dark-grown Arabidopsis Col-0 seedlings grown on growth medium supplemented with different concentrations of ES20 or ES20-1. Scale bar: 1 cm. FIG. 3B. Quantification of hypocotyl length of 5-day-old dark-grown Arabidopsis Col-0 seedlings described in FIG. 3A. Data represent mean±SD (n=12 seedlings). FIG. 3C. Quantification of crystalline cellulose content in the hypocotyl cell walls of 7-day-old dark-grown Col-0 seedlings grown on growth medium supplemented with DMSO (0.1%), 1 μM ES20, or 1 μM ES20-1. Data represent mean±SD (n=3 biological replicates). FIG. 3D and FIG. 3E. […] FIG. 3D. Representative image of 6-day-old rice seedlings grown in sterile water supplemented with DMSO (0.1%), 20 μM ES20, or 20 μM ES20-1. Scale bar: 1 cm. FIG. 3E. Quantification of root length of rice seedlings as described in FIG. 3D. Data represent mean±SD (n=10 seedlings). FIG. 3F and FIG. 3G. […] FIG. 3F. Representative image of 6-day-old maize seedlings grown in sterile water supplemented with DMSO (0.1%), 20 μM ES20, or 20 μM ES20-1. Scale bar: 1 cm. FIG. 3G. Quantification of root length of maize seedlings as described in FIG. 3F. Data represent mean±SD (n=12 seedlings). […] FIG. 3H. Representative immunoblot from a DARTS assay of ES20-1 and YFP-AtCESA6. FIG. 3I. Quantitative analysis of the band intensity of YFP-AtCESA6 and SEC12 in ES20-1-treated samples divided by that of DMSO-treated samples in the DARTS assay described in FIG. 3H. Data represent mean±SD (n=6 biological replicates). FIGS. 3J-3N. […] FIG. 3J. Coomassie blue staining of purified GFP-tagged CESA6c with a His-SUMO tag (lane 2). FIGS. 3K, 3L, 3M, 3N. […] FIG. 3O. Coomassie blue staining of purified GFP-tagged CESA6c^P595S with a His-SUMO tag (lane 2). FIG. 3P and FIG. 3Q. […] Statistically significant differences in FIG. 3B were determined using one-way ANOVA followed by Tukey's multiple comparisons test. Lower-case letters represent ANOVA results for plants grown on medium with 0.1% DMSO, different concentrations of ES20 or ES20-1. […]

[4] = target: T2, GFP-CESA6c (central cytosolic domain of AtCESA6) (Arabidopsis thaliana, UniProt Q94JQ6); experiment: MST assay with GFP-CESA6c; type: binding; details: for interaction with CESA6c: 100 nM GFP-CESA6c
T2 construct: made in house; host or cells: E. coli
Source text: To obtain the central cytosolic domain of AtCESA6 for the MST assay, we inserted the GFP coding sequence into the SacI and PstI restriction enzyme sites of the pRSF-Duet-1 vector (Huang et al., 2020). The GFP coding sequence was amplified from the pUBN-GFP-DEST vector. The sequence encoding the central cytosolic domain of CESA6 (CESA6c) was amplified from Col-0 cDNA and fused with GFP at the C-terminus. CESA6c construct was used as a template for creating CESA6c^P595S construct by site-directed mutagenesis. Protein purification was performed as previously described (Huang et al., 2020).
MST assays were carried out using a Monolith NT.115 (NanoTemper) machine at the Chemical Genomics Facility at Purdue University. […] The ES20-1 was dissolved in DMSO, and the final concentration of DMSO was 5% (vol/vol). MST standard capillaries were used to load the samples into the MST instrument. Triplicate reactions were performed for each test. The MST data were processed using MO. Affinity Analysis Version 2.3 software.

[5] = target: T3, GFP-CESA6c^P595S: GFP-tagged central cytoplasmic domain of AtCESA6 (cellulose synthase, CESA6) carrying missense mutation P595S, with a His-SUMO tag (Arabidopsis thaliana, UniProt Q94JQ6, P595S); experiment: Microscale thermophoresis (MST) binding to purified GFP-tagged CESA6c^P595S (missense mutant)
T3 construct: We purified AtCESA6 central cytoplasmic domain carrying missense mutation P595S (CESA6c^P595S); His-SUMO; made in house; host or cells: E. coli
Source text: FIGS. 3A-3Q. […] FIG. 3A to FIG. 3G. […] FIG. 3A. Representative 5-day-old dark-grown Arabidopsis Col-0 seedlings grown on growth medium supplemented with different concentrations of ES20 or ES20-1. Scale bar: 1 cm. FIG. 3B. Quantification of hypocotyl length of 5-day-old dark-grown Arabidopsis Col-0 seedlings described in FIG. 3A. Data represent mean±SD (n=12 seedlings). FIG. 3C. Quantification of crystalline cellulose content in the hypocotyl cell walls of 7-day-old dark-grown Col-0 seedlings grown on growth medium supplemented with DMSO (0.1%), 1 μM ES20, or 1 μM ES20-1. Data represent mean±SD (n=3 biological replicates). FIG. 3D and FIG. 3E. […] FIG. 3D. Representative image of 6-day-old rice seedlings grown in sterile water supplemented with DMSO (0.1%), 20 μM ES20, or 20 μM ES20-1. Scale bar: 1 cm. FIG. 3E. Quantification of root length of rice seedlings as described in FIG. 3D. Data represent mean±SD (n=10 seedlings). FIG. 3F and FIG. 3G. […] FIG. 3F. […] Quantification of root length of maize seedlings as described in FIG. 3F. […] Quantitative analysis of the band intensity of YFP-AtCESA6 and SEC12 in ES20-1-treated samples divided by that of DMSO-treated samples in the DARTS assay described in FIG. 3H. […] Statistically significant differences in FIG. 3B were determined using one-way ANOVA followed by Tukey's multiple comparisons test. […]

SMILES | sensitivity of es20r1-es20r15 mutants in growth [1] | sensitivity of transgenic lines with AtCESA6 catalytic site mutations [2] | Kd ([3]; FIG. 3N, GFP-CESA6c purified from E. coli, pH 7.5, 10 mM MgCl2, 0.05% Tween 20, triplicate) | interaction with CESA6c [4] | relative binding affinity to CESA6c ([4]; MST) | Kd ([3]; FIGS. 3K-3M, 100 nM GFP-CESA6c purified from E. coli, pH 7.5, 10 mM MgCl2, 0.05% Tween 20, 5% DMSO, triplicate) | Kd [5]
Cc1cccnc1NC(=S)NC(=O)c1cccc([N+](=O)[O-])c1C [ES20-9] | 14 out of 15 mutants except es20r13 show reduced sensitivity | Reduced sensitivity | 5.1 ± 4.8 µM | also interacts | slightly lower than ES20-1 | – | –
COc1ccc(C(=O)NC(=S)NNC(=O)c2ccccc2C)cc1 [ES20] | – | – | – | – | – | 9.7 ± 3.3 µM | 24.5 ± 26.9 µM
CC1(C)S[C@@H]2[C@H](NC(=O)[C@H](N)c3ccccc3)C(=O)N2[C@H]1C(=O)O [ampicillin, reference compound] | – | – | – | did not interact | – | – | –
